Among the test systems are UO-31 renal; SK-MEL-2 melanoma; MOLT-4 leukemia; RPMI-8226 leukemia; SR leukemia; SF-539 CNS; KM12 colon; A549 NSCLC; OVCAR-5 ovarian; MALME-3M melanoma.
Common to all, as to experiment: NCI-60 cell line screen, 48 h

Values joined by “and” are separate entries in the source; they are usually repeats but may differ in a detail not shown here. Equal values may be shown once.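 A five-concentration, 48-hour dose response in 96-well plates underlies each endpoint, interpolated linearly between surrounding concentrations. GI50 marks 50% less growth. Definition used: TGI = concentration required for complete inhibition of growth.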

Consider `N#Cc1c(NC(=O)c2ccccc2F)sc2c1CCCC2`, for which the GI50 with UO-31 renal, with SK-MEL-2 melanoma, in the test with MOLT-4 leukemia, in the test on RPMI-8226 leukemia, with SR leukemia and with SF-539 CNS was more than 25 µM each time. Further, the GI50 in the test with KM12 colon is 5.12 µM; in the test on A549 NSCLC, more than 25 µM; in the test on OVCAR-5 ovarian it was more than 25 µM; in the test with MALME-3M melanoma, more than 25 µM. For the same compound, the TGI in the test on UO-31 renal, with SK-MEL-2 melanoma, with MOLT-4 leukemia, in the test on RPMI-8226 leukemia, with SR leukemia and in the test on SF-539 CNS was more than 25 µM each time. Also, the TGI in the test on KM12 colon, in the test on A549 NSCLC, with OVCAR-5 ovarian and in the test on MALME-3M melanoma was more than 25 µM throughout.
With `Clc1ccc([I+]c2ccc(Cl)cc2Cl)c(Cl)c1`, the GI50 in the test on UO-31 renal is 1.48 µM; with SK-MEL-2 melanoma, 2.62 µM; in the test on MOLT-4 leukemia, 2.5 µM; in the test on RPMI-8226 leukemia, 2.19 µM; in the test on SR leukemia, 2.19 µM; with SF-539 CNS, 1.8 µM. Further, the GI50 is 2.13 µM in the test with KM12 colon, 2.66 µM with A549 NSCLC, 1.8 µM with OVCAR-5 ovarian and 1.73 µM in the test on MALME-3M melanoma. Also, the TGI in the test on UO-31 renal stood at 2.98 µM; in the test on SK-MEL-2 melanoma it was 5 µM; with MOLT-4 leukemia, 6.62 µM; in the test with RPMI-8226 leukemia it was 5.25 µM; with SR leukemia it was 5.65 µM; with SF-539 CNS, 3.39 µM. For the same compound, the TGI in the test with KM12 colon is 4.47 µM; in the test on A549 NSCLC, 7.71 µM; with OVCAR-5 ovarian it was 3.8 µM; in the test with MALME-3M melanoma, 3.61 µM.
On to `C[C@H]1CN(C2COC2)CCN1c1ccc(Nc2cc(-c3ccnc(N4CCn5c(cc6c5CC(C)(C)C6)C4=O)c3CO)cn(C)c2=O)nc1`, for which the GI50 is 21.7 µM in the test with UO-31 renal; 74.2 µM with SK-MEL-2 melanoma; 14.3 µM in the test on MOLT-4 leukemia; 13.1 µM in the test with RPMI-8226 leukemia; 23.1 µM in the test with SR leukemia; 21.4 µM in the test on SF-539 CNS. For the same compound, the GI50 was 56.8 µM in the test on KM12 colon, 56.8 µM with A549 NSCLC, 73 µM with OVCAR-5 ovarian and more than 100 µM in the test on MALME-3M melanoma. The TGI in the test on UO-31 renal is more than 100 µM; with SK-MEL-2 melanoma, more than 100 µM; in the test on MOLT-4 leukemia it was more than 100 µM; in the test on RPMI-8226 leukemia it was 60.7 µM; in the test on SR leukemia, more than 100 µM; in the test on SF-539 CNS, 66.9 µM. In addition, the TGI in the test on KM12 colon, with A549 NSCLC, in the test on OVCAR-5 ovarian and in the test with MALME-3M melanoma was more than 100 µM each time.
With `O=C(c1cc(Cc2n[nH]c(=O)c3ccccc23)ccc1F)N1CCN(C(=O)C2CC2)CC1`, the GI50 in the test with UO-31 renal was 71.7 µM and 40.7 µM; with SK-MEL-2 melanoma, more than 100 µM; in the test with MOLT-4 leukemia it was 46.7 µM and 22.4 µM; with RPMI-8226 leukemia, 30.5 µM and 35.7 µM; in the test on SR leukemia, 7.78 µM and 14.1 µM; in the test on SF-539 CNS it was more than 100 µM. Moreover, the GI50 with KM12 colon was more than 100 µM; with A549 NSCLC it was more than 100 µM; in the test with OVCAR-5 ovarian, more than 100 µM; in the test with MALME-3M melanoma, 62.4 µM and > 100 µM. Further, the TGI with UO-31 renal, in the test on SK-MEL-2 melanoma, in the test with MOLT-4 leukemia, in the test with RPMI-8226 leukemia, in the test with SR leukemia and in the test on SF-539 CNS was more than 100 µM each time. For the same compound, the TGI in the test with KM12 colon, in the test on A549 NSCLC, in the test on OVCAR-5 ovarian and with MALME-3M melanoma was more than 100 µM throughout.
Turning to `C[C@@H](NC(=O)c1ccc(F)cc1)c1ccc2c(c1)CCN2C(=O)C1CCOCC1`, the GI50 in the test with UO-31 renal, in the test with SK-MEL-2 melanoma, in the test with MOLT-4 leukemia, with RPMI-8226 leukemia, in the test with SR leukemia and with SF-539 CNS was more than 100 µM in each case. The GI50 in the test on KM12 colon, with A549 NSCLC, in the test on OVCAR-5 ovarian and in the test on MALME-3M melanoma was more than 100 µM throughout. Also, the TGI in the test on UO-31 renal, with SK-MEL-2 melanoma, with MOLT-4 leukemia, in the test with RPMI-8226 leukemia, in the test on SR leukemia and in the test on SF-539 CNS was more than 100 µM throughout. Also, the TGI with KM12 colon, with A549 NSCLC, in the test with OVCAR-5 ovarian and in the test with MALME-3M melanoma was more than 100 µM throughout.
For the compound `O=c1[nH]c2ccccc2n1C1CCN(CCCC(c2ccc(F)cc2)c2ccc(F)cc2)CC1`, the GI50 in the test with UO-31 renal is 1.11 µM and 3.56 µM; in the test on SK-MEL-2 melanoma it was 2.1 µM and 5.52 µM; in the test with MOLT-4 leukemia it was 2.23 µM; in the test on RPMI-8226 leukemia, 2.06 µM and 3.96 µM; in the test with SF-539 CNS, 1.88 µM and 3.35 µM; in the test with KM12 colon it was 1.76 µM and 6.97 µM. Besides, the GI50 with A549 NSCLC was 1.48 µM and 7.32 µM; with OVCAR-5 ovarian it was 1.74 µM; with MALME-3M melanoma, 1.71 µM. Moreover, the TGI with UO-31 renal is 2.44 µM and 18.1 µM; in the test with SK-MEL-2 melanoma it was 3.96 µM and 12.3 µM; in the test with MOLT-4 leukemia, 5.75 µM and 16.6 µM; in the test on RPMI-8226 leukemia, 8.97 µM and 20.4 µM; in the test on SR leukemia, 5.22 µM; in the test on SF-539 CNS, 3.58 µM and 9.28 µM. Also, the TGI with KM12 colon was 3.4 µM and 22.1 µM; in the test with A549 NSCLC it was 3.14 µM and 21.9 µM; in the test on OVCAR-5 ovarian, 3.51 µM and 22.8 µM; in the test on MALME-3M melanoma it was 3.42 µM and 5.09 µM.
Consider `COc1cc(C(=O)/C=C/c2c(C(F)(F)F)nc3ccccn23)cc(OC)c1OC`, for which the GI50 with UO-31 renal was 1.49 µM; in the test with SK-MEL-2 melanoma it was 2.43 µM; with MOLT-4 leukemia, 3.73 µM; in the test on RPMI-8226 leukemia, 2.91 µM; with SR leukemia it was 1.98 µM; with SF-539 CNS it was 1.63 µM. For the same compound, the GI50 with KM12 colon is 1.73 µM; in the test on A549 NSCLC, 4.04 µM; in the test on OVCAR-5 ovarian it was 1.98 µM; in the test on MALME-3M melanoma it was 1.57 µM. Also, the TGI in the test on UO-31 renal is 3.11 µM; in the test on SK-MEL-2 melanoma, 6.07 µM; in the test with MOLT-4 leukemia, more than 100 µM; in the test on RPMI-8226 leukemia, more than 100 µM; in the test on SR leukemia, more than 100 µM; in the test with SF-539 CNS it was 3.22 µM. Moreover, the TGI is 3.64 µM in the test on KM12 colon, more than 100 µM in the test with A549 NSCLC, 4.02 µM in the test with OVCAR-5 ovarian and 3.35 µM in the test with MALME-3M melanoma.
